Measured values: patent US6376526B1, “Triazole antifungal agents” (Pfizer Inc., priority 1996, dated 2002)

Columns and labels:
Candida albicans = test: in vivo activity against acute systemic candidosis in immune-normal mice; conditions: dose protecting 50% of mice on day 2 post-infection; mice infected i.v. with Candida albicans; oral dosing 1, 4 and 24 hours post-infection
Description: The in vivo evaluation of the compounds can be carried out at a series of dose levels by intraperitoneal or intravenous injection, or by oral administration, to mice or rats which are inoculated with, e.g. a strain of Candida albicans, Aspergillus fumigatus or Cryptococcus neoformans. Activity may be based on the number of survivors from a treated group of mice after the death of an untreated group of mice.
For Candida spp. infection models the dose level at which the compound provides 50% protection against the lethal effect of the infection (PD50) is also assessed.
The Table below illustrates the in vivo activity against acute systemic candidosis in immune-normal mice for a selection of the compounds of the invention.
Mice were infected intravenously with Candida albicans in order to establish a systemic infection (all untreated control mice died by 2 days post-infection). Compound efficacy was assessed on the basis of survival after oral dosing (0.1-5 mg/kg; 1, 4 and 24 hours post-infection) and was measured as the dose protecting 50% of mice on day 2 post-infection.

[1] = 7-day toxicity study in rats; type: in vivo; conditions: 30 mg/kg p.o., o.d., 7 days

SMILES | PD50 (Candida albicans) [mg/kg] | adverse effects in 7-day toxicity study [1]
C[C@@H](c1ccc(/C=C/n2ccnc2)cc1)[C@](O)(Cn1cncn1)c1ccc(F)cc1F (relative stereo) [Example 5, Trans-(2R,3S/2S,3R)-1-(1,2,4-triazol-1-yl)-2-(2,4-difluorophenyl)-3-{4-[2-(imidazol-1-yl)ethenyl]phenyl}butan-2-ol] | 0.18 | 
C[C@@H](c1ccc(/C=C/C(C)(C)O)cn1)[C@](O)(Cn1cncn1)c1ccc(F)cc1F (relative stereo) [Example 9, Trans-(2R,3S/2S,3R)-1-(1,2,4-triazol-1-yl)-2-(2,4-difluorophenyl)-3-[5-{3-hydroxy-3-methylbut-1-en-1-yl}pyrid-2-yl]butan-2-ol] | 0.18 | 
C[C@@H](c1ccc(/C=C/c2c[nH]nn2)cn1)[C@](O)(Cn1cncn1)c1ccc(F)cc1F (relative stereo) [Example 10, Trans-(2R,3S/2S,3R)-1-(1,2,4-triazol-1-yl)-2-(2,4-difluorophenyl)-3-{5-[2-(1,2,3-triazol-4-yl)ethenyl]pyrid-2-yl}butan-2-ol] | 0.32 | 
C[C@@H](c1ccc(/C=C/c2ccnn2C)cc1)[C@](O)(Cn1cncn1)c1ccc(F)cc1F [Example 1, Trans-(2R,3S)-1-(1,2,4-triazol-1-yl)-2-(2,4-difluorophenyl)-3-{4-[2-(1methylpyrazol-5-yl)ethenyl]phenyl}butan-2-ol] | <0.10 | no adverse effects
